Assay results as given in US9296694B2, “Azacyclic compounds” (ACADIA Pharmaceuticals Inc., priority 2000, dated 2016).
Entries after “also recorded” stand apart in the source; their conditions may differ.

What follows are molecules tested on DOI-induced head twitches in mice (assay: Observation for head twitches in DOI-treated mice). Settings: mice; 2.5 mg/kg, i.p., 15 min; score 0-6.
Assay type: in vivo
Text: (§1) Instruments) were used for rat experiments (details on startle apparatus and measures, see Male Non-Swiss Albino mice and male Sprague-Dawley rats (Harlan Sprague-Dawley) were housed (4 mice/cage; 2 rats/cage) in rooms with temperature and humidity controlled and water and food (Harlan Teklad) freely available. Mice were kept on a 12-hr light:dark cycle, whereas rats were kept on a 12-hr reverse light:dark cycle. For locomotor and observation experiments in mice, plastic 20×20×30 cm activity cages were equipped with photocell beams (AccuScan Instruments). Startle chambers (San Diego Instruments) were used for rat experiments (for details on startle apparatus and measures, see Mansbach et al., (1988) Psychopharmacology 94:507-14).
Mice were treated with 2.5 mg/kg DOI i.p. Five min later, mice were treated with AC-90179 s.c. and placed into activity cages. Ten min later, mice were observed using a repeated sampling technique. […] Each dose combination was tested in a separate group of animals (n=8) and the experimenter was blind to drug conditions. Head twitch scores were averaged followed by analysis of variance (ANOVA) and post-hoc Dunnett's t-test comparisons.
The effect of various compounds on head twitch behavior in mice treated with DOI was observed as described in Example 139. Animals received 0.1-30 mg/kg of the compound indicated via subcutaneous injection. MED indicates the minimum effective dose at which a statistically significant reduction in head twitching score (described above) was observed. MED=minimum effective dose in vivo.

SMILES | average head twitch score
COc1cc(CC(C)N)c(OC)cc1I (stereo not drawn) [DOI, reference compound] | 2.6 (±0.3, S.E.M.)

Same assay, conditions: statistically significant reduction in head twitching score; DOI-treated mice; 0.1-30 mg/kg subcutaneous injection

SMILES | MED (minimum effective dose in vivo)
COc1ccc(CC(=O)N(Cc2ccc(C)cc2)C2CCN(C(C)(C)C)CC2)cc1 [Compound 47AKU-49, 2-(4-Methoxyphenyl)-N-(4-methylbenzyl)-N-(1-t-butylpiperidin-4-yl)-acetamide] | ≦10 mg/kg
CCCCOc1ccc(CC(=O)N(Cc2ccc(C)cc2)C2CCN(C)CC2)cc1 [Compound 58AKU-5, 2-(4-Butoxyphenyl)-N-(4-methylbenzyl)-N-(1-methylpiperidin-4-yl)acetamide] | ≦1 mg/kg
COc1ccc(CC(=O)N(Cc2ccc(C)cc2)C2CCN(Cc3ccccc3)CC2)cc1.Cl [Compound 26HCH17, N-((4-Methylphenyl)methyl)-N-(1-(phenylmethyl)piperidin-4-yl)-4-methoxyphenylacetamide hydrochloride] | 30 mg/kg
COc1ccc(CC(=O)N(CCCc2ccccc2)C2CCN(C)CC2)cc1 [Compound 50ELH65, 2-(4-Methoxyphenyl)-N-(3-phenyl-1-propyl)-N-(1-methylpiperidin-4-yl)acetamide] | ≦10 mg/kg
Cc1ccc(CN(C(=O)Cc2ccccc2)C2CCN(C)CC2)cc1 [Compound 47AKU-13, 2-Phenyl-N-(4-methylbenzyl)-N-(1-methylpiperidin-4-yl)-acetamide] | ≦10 mg/kg
COc1ccc(CC(=O)N(Cc2ccc(C)cc2)C2CCN(C3CCC3)CC2)cc1 [Compound 47AKU-20, 2-(4-Methoxyphenyl)-N-(4-methylbenzyl)-N-(1-cyclobutylpiperidin-4-yl)acetamide] | ≦10 mg/kg
COc1ccc(CC(=O)N(Cc2ccc(C)cc2)C2CC3CCC(C2)N3C)cc1 (stereo not drawn) [Compound 47AKU-21, 2-(4-Methoxyphenyl)-N-(4-methylbenzyl)-N-(tropin-4-yl)acetamide] | >10 mg/kg
CCOc1ccc(CC(=O)N(Cc2ccc(C)cc2)C2CCN(C)CC2)cc1 [Compound 58AKU-4, 2-(4-Ethoxyphenyl)-N-(4-methylbenzyl)-N-(1-methylpiperidin-4-yl)acetamide] | ≦10 mg/kg
Cc1ccc(CN(C(=O)Cc2ccc(Cl)cc2)C2CCN(CCO)CC2)cc1 [Compound 47AKU-18, 2-(4-Chlorophenyl)-N-(4-methylbenzyl)-N-(1-(2-hydroxyethyl)-piperidin-4-yl)-acetamide] | ≧10 mg/kg
CCN1CCC(N(Cc2ccc(C)cc2)C(=O)Cc2ccc(Cl)cc2)CC1 [Compound 47AKU-12, 2-(4-Chlorophenyl)-N-(4-methylbenzyl)-N-(1-ethylpiperidin-4-yl)acetamide] | ≦10 mg/kg
CN1CCC(N(Cc2ccc(F)cc2)C(=O)Cc2ccc(F)cc2)CC1 [Compound 50ELH6, 2-(4-Fluorophenyl)-N-(4-fluorobenzyl)-N-(1-methylpiperidin-4-yl)acetamide] | ≦10 mg/kg
CCN1CCC(N(Cc2ccc(C)cc2)C(=O)Cc2ccc(OC)cc2)CC1 [Compound 42ELH80, 2-(4-Methoxyphenyl)-N-(4-methylbenzyl)-N-(1-ethylpiperidin-4-yl)acetamide] | ≦10 mg/kg
COc1ccc(CC(=O)N(CCc2ccc(F)cc2)C2CCN(C)CC2)cc1 [Compound 50ELH93A, 2-(4-Methoxyphenyl)-N-(2-4-(fluorophenyl)ethyl)-N-(1-methylpiperidin-4-yl)acetamide] | ≦10 mg/kg
CCOc1ccc(CC(=O)N(Cc2ccc(F)cc2)C2CCN(C)CC2)cc1 [Compound 63ELH21, 2-(4-Ethoxyphenyl)-N-(4-fluorobenzyl)-N-(1-methylpiperidin-4-yl)acetamide] | ≦10 mg/kg
COc1ccc(CC(=O)N(Cc2ccc(Cl)cc2)C2CCN(C(C)C)CC2)cc1 [Compound 42ELH90, 2-(4-Methoxyphenyl)-N-(4-chlorbenzyl)-N-(1-isopropylpiperidin-4-yl)acetamide] | ~10 mg/kg
Cc1ccc(CN(C(=O)NCc2ccccc2)C2CCN(C)CC2)cc1 [Compound 47AKU-22, N-(4-Methylbenzyl)-N-(1-methylpiperidin-4-yl)-N′-benzyl-carbamide] | ≦10 mg/kg
Cc1ccc(CN(C(=O)Cc2ccc(OC(C)C)cc2)C2CCN(C)CC2)cc1 [Compound 58AKU-6, 2-(4-i-Propoxyphenyl)-N-(4-methylbenzyl)-N-(1-methylpiperidin-4-yl)acetamide] | ≦10 mg/kg
COc1ccc(CNC(=O)N(Cc2ccc(C)cc2)C2CCN(C)CC2)cc1 [Compound 47AKU-44, N-(4-Methylbenzyl)-N-(1-methylpiperidin-4-yl)-′N′-(4-methoxybenzyl)-carbamide] | ≦10 mg/kg
Cc1ccc(CN(C(=O)Cc2ccc(Cl)cc2)C2CCN(C)CC2)cc1 [Compound 47AKU-8, 2-(4-Chlorophenyl)-N-(4-methylbenzyl)-N-(1-methylpiperidin-4-yl)-acetamide] | ≦10 mg/kg
COc1ccc(CC(=O)N(Cc2ccc(C)cc2)C2CCN(CC3CCCCC3)CC2)cc1 [Compound 42ELH45, 2-(4-Methoxyphenyl)-N-(4-methylbenzyl)-N-(1-cyclohexylmethylpiperidin-4-yl)acetamide] | 30 mg/kg
Cc1ccc(CN(C(=O)Cc2ccc(Cl)cc2)C2CCN(C(C)C)CC2)cc1 [Compound 47AKU-7, 2-(4-Chlorophenyl)-N-(4-methylbenzyl)-N-(1-isopropylpiperidin-4-yl)acetamide] | ≦10 mg/kg
Cc1ccc(CN(C(=O)Cc2ccc(F)cc2)C2CCN(C)CC2)cc1 [Compound 47AKU-14, 2-(4-Flourophenyl)-N-(4-methylbenzyl)-N-(1-methylpiperidin-4-yl)-acetamide] | ≦10 mg/kg
Cc1ccc(CN(C(=O)Cc2ccc(Cl)cc2)C2CCN(C3CCCC3)CC2)cc1 [Compound 47AKU-11, 2-(4-Chlorophenyl)-N-(4-methylbenzyl)-N-(1-cyclopentylpiperidin-4-yl)-acetamide] | ~10 mg/kg
COc1ccc(CC(=O)N(Cc2ccc(C)cc2)C2CCN(C3CCCC3)CC2)cc1 [Compound 42ELH75, 2-(4-Methoxyphenyl)-N-(4-methylbenzyl)-N-(1-cyclopentylpiperidin-4-yl)acetamide] | ≦10 mg/kg
CN1CCC(N(CCc2ccccc2)C(=O)NCc2ccccc2)CC1 [Compound 47AKU-25, N-Phenethyl-N-(1-methylpiperidin-4-yl)-N′-benzyl-carbamide] | >10 mg/kg
CCOc1ccc(CC(=O)N(CCc2ccc(F)cc2)C2CCN(C)CC2)cc1 [Compound 63ELH20, 2-(4-ethoxyphenyl)-N-[2-(4-fluorophenyl)ethyl]-N-(1-methylpiperidin-4-yl)acetamide] | ≦10 mg/kg
Cc1ccc(CN(C(=O)Cc2ccc(Cl)cc2)C2CCN(C3CCC3)CC2)cc1 [Compound 47AKU-19, 2-(4-Chlorophenyl)-N-(4-methylbenzyl)-N-(1-cyclobutylpiperidin-4-yl)-acetamide] | >10 mg/kg
COc1ccc(CC(=O)N(CCc2ccc(C)cc2)C2CCN(C)CC2)cc1 [Compound 50ELH68] | ≦10 mg/kg

Each molecule was assayed on acoustic startle and prepulse inhibition in rats (assay: Startle testing, prepulse inhibition (PPI) in rats). Settings: rats; 0.5 mg/kg, s.c.
Assay type: in vivo
Text: as §1
Rats were tested and groups (n=10) matched for levels of startle reactivity and prepulse inhibition (PPI; see Mansbach et al., (1988) Psychopharmacology 94:507-14). Two days later, test sessions started and consisted of a 5-min acclimation period with a constant background noise (65 dB), followed by 60 presentations of acoustic stimuli to measure acoustic startle responses. The 60 trials consisted of: twenty two 40-ms presentations of a 120 dB broadband pulse, ten 20-ms presentations of each prepulse intensity (68, 71, 77 dB) 100 ms prior to a 40-msec presentation of a 120 dB broadband pulse, and 8 NOSTIM trials in which no stimuli were delivered in order to assess general motor activation in the rats. Thirty min before testing, rats were treated with sterile water (s.c.), risperidone (1.0 mg/kg, i.p.), or AC-90179 (s.c.). Five min later, rats were administered DOI (0.5 mg/kg, s.c.) or 0.9% saline (s.c.). One-week later, rats were administered the same pretreatment drug or vehicle and crossed over to receive the treatment opposite to that they received the previous week. Startle magnitudes and percent PPI for the three prepulse intensities were calculated as described elsewhere (Bakshi, et al., (1994) J. Pharmacol. Exp. Ther. 271:787-94) and ANOVAs with repeated measures performed.

SMILES | effect on PPI
COc1cc(CC(C)N)c(OC)cc1I (stereo not drawn) [DOI, reference compound] | significantly disrupted PPI

Same assay, conditions: rats; 3-way repeated measures ANOVA

SMILES | effect on startle magnitude
Cc1nc2n(c(=O)c1CCN1CCC(c3noc4cc(F)ccc34)CC1)CCCC2 [risperidone] | no effect on startle magnitude

Same assay, conditions: rats; DOI 0.5 mg/kg s.c.; AC-90179 s.c., risperidone 1.0 mg/kg i.p.

SMILES | restoration of PPI in DOI-treated rats
Cc1nc2n(c(=O)c1CCN1CCC(c3noc4cc(F)ccc34)CC1)CCCC2 [risperidone] | effective in restoring PPI in DOI-treated rats; also recorded: significant effects

Same assay, conditions: saline (vehicle)-treated rats; AC-90179 s.c., risperidone 1.0 mg/kg i.p.

SMILES | effect on PPI on its own
Cc1nc2n(c(=O)c1CCN1CCC(c3noc4cc(F)ccc34)CC1)CCCC2 [risperidone] | no effect on PPI by itself
